The text below walks through data of US5079265A, “Composition and methods for providing optimum bioavailability of the active ingredient 2-hydroxy-5-methyllaurophenoxime (HMLO)” (VEB Fahlberg-List Chemische und pharmazeutische Fabriken, priority 1989, dated 1992).

As usually defined, the solubility is how much of the substance goes into solution per volume. High values mean much dissolved substance, low ones little dissolved substance.

Structures are written as SMILES. In brackets after ≈: the same amount, converted by molar mass.

The nature of data set [1]: Effect of different auxiliaries on the solubility of HMLO active ingredient in water at 293° K. Conditions: for solubility: water, 293° K. In kind it is physicochemical. As to the method:
Effect of Different Auxiliaries on the Solubility of HMLO Active Ingredient in Water at 293° K.

A short description of data set [2]: In vivo absorption of HMLO active ingredient by rabbits after oral administration as a function of the auxiliaries used. The conditions noted are these: 12 mg/kg. From the text:
In Vivo Absorption of HMLO Active Ingredient by the Rabbits After Oral Administration as a Function of the Auxiliaries Used.

A short description of data set [3]: Absorption of HMLO in vitro and in vivo in the presence of bile acids. The conditions noted are these: compared with pure active ingredient and known preparations. From the text:
This improvement is observed also in comparison with the oily preparation, although the same mechanism for affecting the absorption obviously forms the basis for this preparation.

For data set [4] the following is noted: cited from earlier work.

Consider `CCCCCCCCCCCC(=NO)c1cc(C)ccc1O` [HMLO, 2-hydroxy-5-methyllaurophenoxime], for which the Solubility in water result in data set [1] (pure HMLO, no auxiliary) is “insoluble”. Also, the solubility in data set [1] (auxiliary Tween (R) 80 0.75%) is 130 µg/mL (≈ 426 µM); in data set [1] (auxiliary benzalkonium bromide 1.00%), 24 µg/mL (≈ 78.6 µM); in data set [1] (auxiliary polyethylene glycol 6500 10.00%), 1 µg/mL (≈ 3.27 µM); in data set [1] (auxiliary propylene glycol 1.00%), 2.3 µg/mL (≈ 7.53 µM); in data set [1] (auxiliary sodium desoxycholate 0.75%), 2750 µg/mL (≈ 9000 µM). Besides, the Absorption result in data set [2] (bile acids as auxiliary, compared with oil) was “distinctly exceeded by the use of bile acids”; in data set [2] (oil as auxiliary), “clearly affected by the use of oil as auxiliary”; in data set [2] (without auxiliaries), “not absorbed to a measurable extent”; in data set [3], “improved clearly in vitro and in vivo in the presence of bile acids”. Besides, the “Side effects on long-term treatment” value in data set [4] (oily preparation) is given as “occurrence of diarrhea”. The Bioavailability entry in data set [4] (solutions and emulsions containing oils) is recorded as “the bioavailability can be increased”.
